{"source": "patent US20050053555A1", "about": "“Appetite control compositions and methods of use” (Crave Busters, LLC., priority 2003, published 2005)", "tested_on": "sweetness taste receptors of the tongue", "assay": "blocking the sense of sweetness by topical delivery to mouth and tongue", "assay_type": "in vivo", "conditions": "about 10 mg to about 80 mg glycyrrhizin delivered concurrently with gymnemic acid", "text": "Without being bound to any particular theory of action, it is currently believed that the appetite control compositions according to the invention deliver a relatively small dose of an active ingredient, gymnemic acid, directly to the sweetness taste receptors of the tongue, which blocks the sense of sweetness and thereby produces appetite control.\nGymnema sylvestre is commonly called Gurmar. It is well known in the art as a “sugar blocker.” Gymnema sylvestre contains the bitter principle gymnemic acid, which is well known for its ability to bind to the sweetness taste receptors on the tongue and to sugar absorption sites in the gut. Formerly, Gymnema sylvestre and extracts standardized to deliver gymnemic acid have been incorporated into traditional dosage forms to take advantage of its ability to block the absorption of sugar from the gut. […]\nThe appetite control compositions according to the invention include Gymnema sylvestre herb or, preferably, an extract of Gymnema sylvestre herb designed to maximize the quantity of gymnemic acid it contains. […]\nIn some embodiments, the appetite control compositions according to the invention include Glycyrrhiza glabra root or, preferably, an extract of Glycyrrhiza glabra root designed to maximize the quantity of glycyrrhizin it contains. […]"}
{"smiles": "CC1(C)[C@@H](O[C@H]2O[C@H](C(=O)O)[C@@H](O)[C@H](O)[C@H]2O[C@@H]2O[C@H](C(=O)O)[C@@H](O)[C@H](O)[C@H]2O)CC[C@]2(C)[C@H]3C(=O)C=C4[C@@H]5C[C@@](C)(C(=O)O)CC[C@]5(C)CC[C@@]4(C)[C@]3(C)CC[C@@H]12", "note": "[glycyrrhizin]", "values": [{"measurement": "effect on quantity of gymnemic acid required to block the sense of sweetness for 1 to 2 hours", "value": "effectively reduces the quantity of gymnemic acid required"}]}
